In the supplement of paper PMC8882468:

Each molecule was assayed on HCI-025 (organoid from a breast cancer xenograft) (assay: CTG-3D luminescence at 96 h relative to day-0 seeding control (ratio to day 0); higher = more growth / less cytotoxicity; PDxO 3D drug screen, 96 h, CTG-3D normalised to day-0 seeding control.). Details: 0.00025 µM; days in culture: 218.

SMILES | CTG-3D luminescence at 96 h
C[C@H](NC(=O)CCC(F)(F)F)C(=O)N[C@@H]1C(=O)N(CCO)c2ncccc2-c2ccccc21 [crenigacestat] | 2.02
COc1cccc2c1C(=O)c1c(O)c3c(c(O)c1C2=O)C[C@@](O)(C(=O)CO)C[C@@H]3O[C@H]1C[C@H](N)[C@H](O)[C@H](C)O1 [doxorubicin] | 1.89
C[C@]12CC[C@@H]3c4ccc(O)cc4C[C@@H](CCCCCCCCC[S+]([O-])CCCC(F)(F)C(F)(F)F)[C@H]3[C@@H]1CC[C@@H]2O (stereo partly specified) [fulvestrant] | 1.8
Nc1ccn([C@@H]2O[C@H](CO)[C@@H](O)C2(F)F)c(=O)n1 [gemcitabine] | 2.09
C=CC(=O)N1CCC[C@@H](n2nc(-c3ccc(Oc4ccccc4)cc3)c3c(N)ncnc32)C1 [ibrutinib] | 2.33
CN(Cc1cnc2nc(N)nc(N)c2n1)c1ccc(C(=O)N[C@@H](CCC(=O)O)C(=O)O)cc1 [methotrexate] | 2
CC1(C)CCC(c2ccc(Cl)cc2)=C(CN2CCN(c3ccc(C(=O)NS(=O)(=O)c4ccc(N[C@H](CCN5CCOCC5)CSc5ccccc5)c(S(=O)(=O)C(F)(F)F)c4)cc3)CC2)C1 [navitoclax] | 1.87
NC(=O)c1cccc2cn(-c3ccc([C@@H]4CCCNC4)cc3)nc12 [niraparib] | 1.94

Same assay, conditions: 0.005 µM; days in culture: 172

SMILES | CTG-3D luminescence at 96 h
C[C@H](NC(=O)CCC(F)(F)F)C(=O)N[C@@H]1C(=O)N(CCO)c2ncccc2-c2ccccc21 [crenigacestat] | 2.79
COc1cccc2c1C(=O)c1c(O)c3c(c(O)c1C2=O)C[C@@](O)(C(=O)CO)C[C@@H]3O[C@H]1C[C@H](N)[C@H](O)[C@H](C)O1 [doxorubicin] | 2.22
C[C@]12CC[C@@H]3c4ccc(O)cc4C[C@@H](CCCCCCCCC[S+]([O-])CCCC(F)(F)C(F)(F)F)[C@H]3[C@@H]1CC[C@@H]2O (stereo partly specified) [fulvestrant] | 3.7
Nc1ccn([C@@H]2O[C@H](CO)[C@@H](O)C2(F)F)c(=O)n1 [gemcitabine] | 2.29
C=CC(=O)N1CCC[C@@H](n2nc(-c3ccc(Oc4ccccc4)cc3)c3c(N)ncnc32)C1 [ibrutinib] | 2.79
CN(Cc1cnc2nc(N)nc(N)c2n1)c1ccc(C(=O)N[C@@H](CCC(=O)O)C(=O)O)cc1 [methotrexate] | 3.51
CC1(C)CCC(c2ccc(Cl)cc2)=C(CN2CCN(c3ccc(C(=O)NS(=O)(=O)c4ccc(N[C@H](CCN5CCOCC5)CSc5ccccc5)c(S(=O)(=O)C(F)(F)F)c4)cc3)CC2)C1 [navitoclax] | 2.93
NC(=O)c1cccc2cn(-c3ccc([C@@H]4CCCNC4)cc3)nc12 [niraparib] | 3.92

Same assay, conditions: 0.005 µM; days in culture: 209

SMILES | CTG-3D luminescence at 96 h
C[C@H](NC(=O)CCC(F)(F)F)C(=O)N[C@@H]1C(=O)N(CCO)c2ncccc2-c2ccccc21 [crenigacestat] | 2.26
COc1cccc2c1C(=O)c1c(O)c3c(c(O)c1C2=O)C[C@@](O)(C(=O)CO)C[C@@H]3O[C@H]1C[C@H](N)[C@H](O)[C@H](C)O1 [doxorubicin] | 2.33
C[C@]12CC[C@@H]3c4ccc(O)cc4C[C@@H](CCCCCCCCC[S+]([O-])CCCC(F)(F)C(F)(F)F)[C@H]3[C@@H]1CC[C@@H]2O (stereo partly specified) [fulvestrant] | 2.26
Nc1ccn([C@@H]2O[C@H](CO)[C@@H](O)C2(F)F)c(=O)n1 [gemcitabine] | 1.83
C=CC(=O)N1CCC[C@@H](n2nc(-c3ccc(Oc4ccccc4)cc3)c3c(N)ncnc32)C1 [ibrutinib] | 2.26
CN(Cc1cnc2nc(N)nc(N)c2n1)c1ccc(C(=O)N[C@@H](CCC(=O)O)C(=O)O)cc1 [methotrexate] | 2.06
CC1(C)CCC(c2ccc(Cl)cc2)=C(CN2CCN(c3ccc(C(=O)NS(=O)(=O)c4ccc(N[C@H](CCN5CCOCC5)CSc5ccccc5)c(S(=O)(=O)C(F)(F)F)c4)cc3)CC2)C1 [navitoclax] | 2.24
NC(=O)c1cccc2cn(-c3ccc([C@@H]4CCCNC4)cc3)nc12 [niraparib] | 2.31

Same assay, conditions: 0.005 µM; days in culture: 218

SMILES | CTG-3D luminescence at 96 h
C[C@H](NC(=O)CCC(F)(F)F)C(=O)N[C@@H]1C(=O)N(CCO)c2ncccc2-c2ccccc21 [crenigacestat] | 1.67
COc1cccc2c1C(=O)c1c(O)c3c(c(O)c1C2=O)C[C@@](O)(C(=O)CO)C[C@@H]3O[C@H]1C[C@H](N)[C@H](O)[C@H](C)O1 [doxorubicin] | 1.74
C[C@]12CC[C@@H]3c4ccc(O)cc4C[C@@H](CCCCCCCCC[S+]([O-])CCCC(F)(F)C(F)(F)F)[C@H]3[C@@H]1CC[C@@H]2O (stereo partly specified) [fulvestrant] | 1.97
Nc1ccn([C@@H]2O[C@H](CO)[C@@H](O)C2(F)F)c(=O)n1 [gemcitabine] | 1.77
C=CC(=O)N1CCC[C@@H](n2nc(-c3ccc(Oc4ccccc4)cc3)c3c(N)ncnc32)C1 [ibrutinib] | 1.93
CN(Cc1cnc2nc(N)nc(N)c2n1)c1ccc(C(=O)N[C@@H](CCC(=O)O)C(=O)O)cc1 [methotrexate] | 2
CC1(C)CCC(c2ccc(Cl)cc2)=C(CN2CCN(c3ccc(C(=O)NS(=O)(=O)c4ccc(N[C@H](CCN5CCOCC5)CSc5ccccc5)c(S(=O)(=O)C(F)(F)F)c4)cc3)CC2)C1 [navitoclax] | 1.59
NC(=O)c1cccc2cn(-c3ccc([C@@H]4CCCNC4)cc3)nc12 [niraparib] | 1.97

Same assay, conditions: 0.1 µM; days in culture: 172

SMILES | CTG-3D luminescence at 96 h
C[C@H](NC(=O)CCC(F)(F)F)C(=O)N[C@@H]1C(=O)N(CCO)c2ncccc2-c2ccccc21 [crenigacestat] | 2.23
COc1cccc2c1C(=O)c1c(O)c3c(c(O)c1C2=O)C[C@@](O)(C(=O)CO)C[C@@H]3O[C@H]1C[C@H](N)[C@H](O)[C@H](C)O1 [doxorubicin] | 1.81
C[C@]12CC[C@@H]3c4ccc(O)cc4C[C@@H](CCCCCCCCC[S+]([O-])CCCC(F)(F)C(F)(F)F)[C@H]3[C@@H]1CC[C@@H]2O (stereo partly specified) [fulvestrant] | 1.97
Nc1ccn([C@@H]2O[C@H](CO)[C@@H](O)C2(F)F)c(=O)n1 [gemcitabine] | 0.436
C=CC(=O)N1CCC[C@@H](n2nc(-c3ccc(Oc4ccccc4)cc3)c3c(N)ncnc32)C1 [ibrutinib] | 1.4
CN(Cc1cnc2nc(N)nc(N)c2n1)c1ccc(C(=O)N[C@@H](CCC(=O)O)C(=O)O)cc1 [methotrexate] | 1.47
CC1(C)CCC(c2ccc(Cl)cc2)=C(CN2CCN(c3ccc(C(=O)NS(=O)(=O)c4ccc(N[C@H](CCN5CCOCC5)CSc5ccccc5)c(S(=O)(=O)C(F)(F)F)c4)cc3)CC2)C1 [navitoclax] | 0.781
NC(=O)c1cccc2cn(-c3ccc([C@@H]4CCCNC4)cc3)nc12 [niraparib] | 2.04

Same assay, conditions: 0.1 µM; days in culture: 209

SMILES | CTG-3D luminescence at 96 h
C[C@H](NC(=O)CCC(F)(F)F)C(=O)N[C@@H]1C(=O)N(CCO)c2ncccc2-c2ccccc21 [crenigacestat] | 1.61
COc1cccc2c1C(=O)c1c(O)c3c(c(O)c1C2=O)C[C@@](O)(C(=O)CO)C[C@@H]3O[C@H]1C[C@H](N)[C@H](O)[C@H](C)O1 [doxorubicin] | 1.37
C[C@]12CC[C@@H]3c4ccc(O)cc4C[C@@H](CCCCCCCCC[S+]([O-])CCCC(F)(F)C(F)(F)F)[C@H]3[C@@H]1CC[C@@H]2O (stereo partly specified) [fulvestrant] | 1.66
Nc1ccn([C@@H]2O[C@H](CO)[C@@H](O)C2(F)F)c(=O)n1 [gemcitabine] | 0.884
C=CC(=O)N1CCC[C@@H](n2nc(-c3ccc(Oc4ccccc4)cc3)c3c(N)ncnc32)C1 [ibrutinib] | 2.09
CN(Cc1cnc2nc(N)nc(N)c2n1)c1ccc(C(=O)N[C@@H](CCC(=O)O)C(=O)O)cc1 [methotrexate] | 0.982
CC1(C)CCC(c2ccc(Cl)cc2)=C(CN2CCN(c3ccc(C(=O)NS(=O)(=O)c4ccc(N[C@H](CCN5CCOCC5)CSc5ccccc5)c(S(=O)(=O)C(F)(F)F)c4)cc3)CC2)C1 [navitoclax] | 1.27
NC(=O)c1cccc2cn(-c3ccc([C@@H]4CCCNC4)cc3)nc12 [niraparib] | 1.69

Same assay, conditions: 0.1 µM; days in culture: 218

SMILES | CTG-3D luminescence at 96 h
C[C@H](NC(=O)CCC(F)(F)F)C(=O)N[C@@H]1C(=O)N(CCO)c2ncccc2-c2ccccc21 [crenigacestat] | 1.69
COc1cccc2c1C(=O)c1c(O)c3c(c(O)c1C2=O)C[C@@](O)(C(=O)CO)C[C@@H]3O[C@H]1C[C@H](N)[C@H](O)[C@H](C)O1 [doxorubicin] | 1.66
C[C@]12CC[C@@H]3c4ccc(O)cc4C[C@@H](CCCCCCCCC[S+]([O-])CCCC(F)(F)C(F)(F)F)[C@H]3[C@@H]1CC[C@@H]2O (stereo partly specified) [fulvestrant] | 1.54
Nc1ccn([C@@H]2O[C@H](CO)[C@@H](O)C2(F)F)c(=O)n1 [gemcitabine] | 0.5
C=CC(=O)N1CCC[C@@H](n2nc(-c3ccc(Oc4ccccc4)cc3)c3c(N)ncnc32)C1 [ibrutinib] | 1.68
CN(Cc1cnc2nc(N)nc(N)c2n1)c1ccc(C(=O)N[C@@H](CCC(=O)O)C(=O)O)cc1 [methotrexate] | 1.06
CC1(C)CCC(c2ccc(Cl)cc2)=C(CN2CCN(c3ccc(C(=O)NS(=O)(=O)c4ccc(N[C@H](CCN5CCOCC5)CSc5ccccc5)c(S(=O)(=O)C(F)(F)F)c4)cc3)CC2)C1 [navitoclax] | 1.15
NC(=O)c1cccc2cn(-c3ccc([C@@H]4CCCNC4)cc3)nc12 [niraparib] | 1.83
